For orientation: IC50 means the concentration that gives 50% inhibition.

This passage reports IC50 and Activity results from ChEMBL document CHEMBL3856270, “Structure-activity relationship of cyclic pentapeptide malformins as fibrinolysis enhancers” (Bioorg Med Chem Lett, 2016).

A short description of data set [1]: Cytotoxicity against human U937 cells assessed as reduction in cell viability after 24 hrs by MTT assay. The following applies: for IC50 at 24 h: human, U937 cells. The class given is toxicity, cell-based, U-937. Background: Formazan colour is commonly taken as a measure of viable cells.
The subject of data set [2] is U-937. In words: Pro-fibrinolytic activity in human U937 cells supplemented with human platelet-poor plasma assessed as [125I]-fibrin degradation at >20 uM after 3 hrs by gamma counting method. The data set is classed as functional, cell-based.
For data set [3], the system named is U-937. In words: Pro-fibrinolytic activity in human U937 cells supplemented with human platelet-poor plasma assessed as [125I]-fibrin degradation up to 5 uM after 3 hrs by gamma counting method. The class given is functional, cell-based.
For data set [4], the system named is U-937. Briefly: Pro-fibrinolytic activity in human U937 cells supplemented with human platelet-poor plasma assessed as [125I]-fibrin degradation after 3 hrs by gamma counting method. The data set is classed as functional, cell-based.

Calls of active or inactive are those of the source. The calls are words filed in the database; no cut-off is given here.

As to `CC[C@H](C)[C@@H]1NC(=O)[C@@H](CC(C)C)NC(=O)[C@H](C(C)C)NC(=O)[C@H]2CSSC[C@@H](NC1=O)C(=O)N2` (stereo in doubt; form 2) [listing 1 of 2 here], the IC50 at 24 h in data set [1] is 760 nM.

`CC[C@H](C)[C@@H]1NC(=O)[C@@H](CC(C)C)NC(=O)[C@H](C)NC(=O)[C@H]2CSSC[C@@H](NC1=O)C(=O)N2`: in data set [1], the IC50 at 24 h was found to be 1400 nM. Consider `CC[C@H](C)[C@@H]1NC(=O)[C@@H](CC(C)C)NC(=O)[C@H](C(C)C)NC(=O)[C@@H](CS)NC(=O)[C@@H](CS)NC1=O`, for which the result in data set [2] was Active. Besides, the IC50 at 24 h in data set [1] was greater than 5000 nM. `CC[C@H](C)[C@@H]1NC(=O)[C@@H](Cc2ccccc2)NC(=O)[C@H](C(C)C)NC(=O)[C@H]2CSSC[C@@H](NC1=O)C(=O)N2`: the outcome in data set [3] was Active. For the same molecule, the 50% inhibitory concentration (IC50) at 24 h in data set [1] was found to be 1300 nM. On to `CC[C@H](C)[C@@H]1NC(=O)[C@@H](CC(C)C)NC(=O)[C@H](Cc2ccccc2)NC(=O)[C@H]2CSSC[C@@H](NC1=O)C(=O)N2`, for which, in data set [3], the outcome was Active. For the same molecule, the IC50 at 24 h in data set [1] is less than 100 nM. On to `CC(C)C[C@H]1NC(=O)[C@H](C(C)C)NC(=O)[C@H]2CSSC[C@@H](NC(=O)[C@H](C)NC1=O)C(=O)N2`, for which, in data set [3], the outcome was Active. For the same molecule, the IC50 at 24 h in data set [1] worked out at 2800 nM. For the molecule `CC[C@H](C)[C@@H]1NC(=O)[C@@H](CC(C)C)NC(=O)[C@H](C(C)C)NC(=O)[C@H]2CSSC[C@@H](NC1=O)C(=O)N2` (stereo in doubt; form 2) [listing 2 of 2 here], in data set [4], the Activity entry is “Dose-dependent effect”. As for `CC[C@H](C)[C@@H]1NC(=O)[C@@H](CCCCNC(=O)OC(C)(C)C)NC(=O)[C@H](C(C)C)NC(=O)[C@H]2CSSC[C@@H](NC1=O)C(=O)N2`, the outcome in data set [3] was Active. Further, in data set [1], the concentration for half-maximal inhibition (IC50) at 24 h was 200 nM. `CC[C@H](C)[C@@H]1NC(=O)[C@@H](CC(C)C)NC(=O)[C@H](C(C)C)NC(=O)[C@@H](CSC(c2ccccc2)(c2ccccc2)c2ccccc2)NC(=O)[C@@H](CSC(c2ccccc2)(c2ccccc2)c2ccccc2)NC1=O`: the IC50 at 24 h in data set [1] is greater than 5000 nM. In the case of `CC[C@H](C)[C@@H]1NC(=O)[C@@H](CC(C)C)NC(=O)[C@H](C(C)C)NC(=O)[C@H]2CSSC[C@@H](NC1=O)C(=O)N2` (stereo in doubt; form 1) [listing 1 of 2 here], the half-maximal inhibitory concentration (IC50) in data set [1] (u-937) came out at 800 nM.

For the molecule `CC(C)C[C@H]1NC(=O)[C@H](C(C)C)NC(=O)[C@H]2CSSC[C@@H](NC(=O)[C@H](Cc3ccccc3)NC1=O)C(=O)N2`, the outcome in data set [3] was Active. For the same molecule, in data set [1], the concentration for half-maximal inhibition (IC50) at 24 h is less than 100 nM. For the molecule `CC[C@H](C)[C@@H]1NC(=O)[C@@H](CC(C)C)NC(=O)[C@H](C(C)C)NC(=O)[C@H]2CSSC[C@@H](NC1=O)C(=O)N2` (stereo in doubt; form 1) [listing 2 of 2 here], the Activity result in data set [4] was “Dose-dependent effect”. Regarding `CC[C@H](C)[C@@H]1NC(=O)[C@@H](C)NC(=O)[C@H](C(C)C)NC(=O)[C@H]2CSSC[C@@H](NC1=O)C(=O)N2`, the outcome in data set [3] was Active. For the same molecule, the half-maximal inhibitory concentration (IC50) at 24 h in data set [1] worked out at 2200 nM.

Regarding `N[C@@H]1CSSC[C@H](C(=O)O)NC1=O`, in data set [1], the 50% inhibitory concentration (IC50) at 24 h is greater than 5000 nM. The same measure, in the same setting: the same measure for `CC[C@H](C)[C@@H]1NC(=O)[C@@H](CC(C)C)NC(=O)[C@H](CCCCN)NC(=O)[C@H]2CSSC[C@@H](NC1=O)C(=O)N2`: greater than 5000 nM; for `CC[C@H](C)[C@H](N)C(=O)N[C@@H]1CSSC[C@H](C(=O)N[C@H](C(=O)N[C@H](CC(C)C)C(=O)O)C(C)C)NC1=O`: greater than 5000 nM.

As to `CC[C@H](C)[C@@H]1NC(=O)[C@@H](CC(C)C)NC(=O)[C@H](CCCCNC(=O)OC(C)(C)C)NC(=O)[C@H]2CSSC[C@@H](NC1=O)C(=O)N2`, the result in data set [3] was Active. Moreover, the IC50 at 24 h in data set [1] was less than 100 nM.

For the molecule `CC(C)C[C@H]1NC(=O)[C@H](C(C)C)NC(=O)[C@H]2CSSC[C@@H](NC(=O)[C@H](CCCCN)NC1=O)C(=O)N2`, the half-maximal inhibitory concentration (IC50) at 24 h in data set [1] is greater than 5000 nM. `CC[C@H](C)[C@@H]1NC(=O)[C@@H](CC(C)C)NC(=O)[C@H](C(C)C)NC(=O)[C@@H](CSC)NC(=O)[C@@H](CSC)NC1=O`: the IC50 at 24 h in data set [1] is greater than 5000 nM. As for `CC[C@H](C)[C@@H]1NC(=O)[C@@H](CCCCN)NC(=O)[C@H](C(C)C)NC(=O)[C@H]2CSSC[C@@H](NC1=O)C(=O)N2`, in data set [1], the 50% inhibitory concentration (IC50) at 24 h is greater than 5000 nM. Turning to `CC(C)C[C@H]1NC(=O)[C@H](C(C)C)NC(=O)[C@H]2CSSC[C@@H](NC(=O)[C@H](CCCCNC(=O)OC(C)(C)C)NC1=O)C(=O)N2`, the outcome in data set [3] was Active. Besides, in data set [1], the IC50 at 24 h is less than 100 nM.
